Holding throughout (test): DTP human tumour cell line panel, 48 h
Test [1] has as its system A498 renal.
For test [2], the system named is BT-549 breast.
In test [3] the test system is DU-145 prostate.
The test system of test [4] is EKVX NSCLC.
The test system of test [5] is HOP-62 NSCLC.
Test [6] has as its system HS 578T breast.
Test [7] deals with KM12 colon.
The test system of test [8] is TK-10 renal.
Test [9] relates to UACC-257 melanoma.
For test [10], the system named is UO-31 renal.

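All cell lines were grown in 96-well plates and treated with compound for 48 hours. The concentration for 50% growth inhibition is given as GI50. TGI marks complete inhibition of growth.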

What is called TGI is the concentration giving total growth inhibition. Read a high TGI as less potent growth arrest. As for `CCOc1cc2c(cc1O)C=C[C@@H]1[C@@H]2CC[C@]2(C)[C@@H](O)CC[C@@H]12`, the concentration for total growth inhibition (TGI) in test [1] is 57.9 µM; in test [2] it was greater than 100 µM; in test [3], 26.8 µM; in [4], greater than 100 µM; in test [5], 49.3 µM; in [6], greater than 100 µM. The concentration for total growth inhibition (TGI) is 20.9 µM in test [7], greater than 92 µM in [8], greater than 100 µM in test [9] and greater than 86.1 µM in [10].

The term GI50 denotes the concentration that inhibits growth by half. For `O=C(N/N=C\c1ccc(N(CCCl)CCCl)cc1)c1cccnc1`, the GI50 was 42.2 µM in test [1]; 19.7 µM in test [2]; 11.4 µM in test [3]; greater than 100 µM in [4]; 31.5 µM in test [5]; 65.5 µM in test [6]. The GI50 in test [7] is 61.9 µM; in test [8], 33.4 µM; in test [9], 60.6 µM; in test [10] it was 14.1 µM. The TGI in test [1], in test [2], in [3], in test [4], in [5] and in test [6] was greater than 100 µM in each case. Besides, the concentration for total growth inhibition (TGI) in [7], in [8], in [9] and in test [10] was greater than 100 µM each time.

Turning to `C=C(C)[C@@]12C[C@H](OC(=O)[C@H](O)[C@@H](NC(=O)c3ccccc3)c3ccccc3)C(C)=C1[C@@H](OC(C)=O)C(=O)[C@@]1(C)C([C@@H]2OC(=O)c2cc(F)cc(F)c2)C2(OC(C)=O)CO[C@@H]2C[C@@H]1O` (stereo not given in full), the total growth inhibition concentration (TGI) in test [1] was 3.03 µM; in test [2], 2.99 µM; in test [3] it was greater than 5.16 µM; in test [4] it was greater than 10 µM; in [5] it was greater than 5.79 µM; in test [6] it was 0.215 µM. Also, the total growth inhibition concentration (TGI) is greater than 3.26 µM in [7], 9.66 µM in [8], 2.79 µM in [9] and greater than 10 µM in [10].

Consider `Cc1cn(CC2(CO)CCC2)c(=O)[nH]c1=O`, for which the TGI in test [1], in test [2], in [3], in test [4], in test [5] and in test [6] was greater than 100 µM throughout. Besides, the concentration for total growth inhibition (TGI) in [7], in test [8], in test [9] and in [10] was greater than 100 µM in each case.

Turning to `Cc1cn(CCCCOC(=O)NC(CCCN=C(N)N)C(=O)O)c(=O)[nH]c1=O` (stereo not given), the total growth inhibition concentration (TGI) in test [1], in test [2], in test [3], in [4], in test [5] and in test [6] was greater than 100 µM in each case. The TGI in test [7], in [8], in [9] and in test [10] was greater than 100 µM each time.

Regarding `O=C1NCN(c2ccccc2)C12CCN(CCCN1CCN(CCOC(c3ccccc3)c3ccccc3)CC1)CC2`, the TGI in [1] came out at 6.55 µM; in test [2], 7.37 µM; in test [3], 7 µM; in test [4] it was 7.24 µM; in test [5] it was 6.6 µM; in test [6], 7.97 µM. For the same molecule, the TGI in test [7] was 5.97 µM; in test [8], 7.15 µM; in [9], 2.7 µM; in [10], 4.39 µM.

As for `CCOC(=O)c1ccc(Nc2nc3ccccc3n3cccc23)cc1`, the TGI in test [1] was greater than 100 µM; in test [2] it was greater than 100 µM; in test [3], greater than 100 µM; in test [4], greater than 100 µM; in test [5], 75.7 µM; in test [6], greater than 100 µM. Moreover, the TGI in test [7], in test [8], in [9] and in [10] was greater than 100 µM throughout.

In the case of `CC(=O)OCCCCn1nncc1Cn1ccc(=O)n(Cc2cnnn2CCCCOC(C)=O)c1=O`, the concentration for total growth inhibition (TGI) in test [1], in test [2], in test [3], in [4], in test [5] and in [6] was greater than 100 µM each time. Also, the total growth inhibition concentration (TGI) in test [7], in [8], in test [9] and in test [10] was greater than 100 µM in each case.

On to `NC1=Nc2ccccc2Sc2nccn21`, for which the TGI was 75.8 µM in [1]; greater than 100 µM in test [2]; greater than 100 µM in test [3]; greater than 100 µM in test [4]; 57.4 µM in test [5]; 79.1 µM in [6]. For the same molecule, the TGI in test [7] came to 69.9 µM; in test [8], 72.6 µM; in test [9], 75 µM; in test [10] it was 63.9 µM.

Regarding `CC(C)(C)c1ccc(NS(=O)(=O)c2ccc(N)cc2)cc1`, the TGI in test [1] is 46.4 µM; in test [2], 54.8 µM; in test [3], 89.5 µM; in test [4], 71.8 µM; in [5] it was 13.7 µM; in test [6], 59.3 µM. Further, the concentration for total growth inhibition (TGI) in [7] was greater than 100 µM; in test [8], greater than 100 µM; in test [9], greater than 100 µM; in test [10], 73.5 µM.

Take `Cc1ccc2c(ccc3ncc(CNc4ccc(NS(C)(=O)=O)cc4)c32)[nH]1`: the TGI in [1] is 33.8 µM; in [2], greater than 100 µM; in [3], 42.6 µM; in test [4] it was greater than 100 µM; in [5], 67.2 µM; in test [6], 59.9 µM. For the same molecule, the concentration for total growth inhibition (TGI) was 36.6 µM in test [7], greater than 100 µM in test [8], 34.7 µM in [9] and 74.7 µM in test [10].

For `C1=C2C3=[N+](CCCC3)CC2Cc2sccc21` (stereo not given), the total growth inhibition concentration (TGI) in [1], in test [2], in test [3], in test [4], in test [5] and in test [6] was greater than 100 µM in each case. Further, the total growth inhibition concentration (TGI) in test [7], in [8], in [9] and in test [10] was greater than 100 µM throughout.
